Columns and labels:
Type in all cases: in vivo
Settings in all cases: 250 g/ha unless otherwise stated, evaluated after 13 days, five-point scale
[1] = test system: Echinochloa crus-galli (ECHCG); assay: Test 1 glasshouse herbicide test, pre-emergence application (Table B2)
Experimental: (§1) Seeds of a variety of test species are sown in standard soil in pots (Lolium perenne (LOLPE), Solanum nigrum (SOLNI), Amaranthus retoflexus (AMARE), Setaria faberi (SETFA), Echinochloa crus-galli (ECHCG) and Ipomoea hederacea (IPOHE)). After cultivation for one day (pre-emergence) or after 8 days cultivation (post-emergence) under controlled conditions in a glasshouse (at 24/16° C., day/night; 14 hours light; 65% humidity), the plants are sprayed with an aqueous spray solution derived from the formulation of the technical active ingredient in acetone/water (50:50) solution containing 0.5% Tween 20 (polyoxyethelyene sorbitan monolaurate, CAS RN 9005-64-5). Compounds are applied at 250 g/ha unless otherwise stated. The test plants are then grown in a glasshouse under controlled conditions in a glasshouse (at 24/16° C., day/night; 14 hours light; 65% humidity) and watered twice daily. After 13 days for pre and post-emergence, the test is evaluated for the percentage damage caused to the plant. The biological activities (% phytotoxicity) are shown in Tables B1 and B2 below using a five-point scale (5=81 to 100%; 4=61 to 80%; 3=41 to 60%; 2=21 to 40%; 1=0 to 20%).

Setaria faberi (SETFA) [2] = assay: as above
Experimental: as §1

[3] = test system: Ipomoea hederacea (IPOHE); assay: as above
Experimental: as §1

[4] = test system: Amaranthus retoflexus (AMARE); assay: as above
Experimental: as §1

[5] = test system: Echinochloa crus-galli (ECHCG); assay: Test 1 glasshouse herbicide test, post-emergence application (Table B1)
Experimental: as §1

Setaria faberi (SETFA) [6] = assay: as above
Experimental: as §1

[7] = test system: Ipomoea hederacea (IPOHE); assay: as above
Experimental: as §1

[8] = test system: Amaranthus retoflexus (AMARE); assay: as above
Experimental: as §1

SMILES | % phytotoxicity ECHCG, pre-emergence application [1] | % phytotoxicity SETFA, pre-emergence application (Setaria faberi (SETFA) [2]) | % phytotoxicity IPOHE, pre-emergence application [3] | % phytotoxicity AMARE, pre-emergence application [4] | % phytotoxicity ECHCG, post-emergence application [5] | % phytotoxicity SETFA, post-emergence application (Setaria faberi (SETFA) [6]) | % phytotoxicity IPOHE, post-emergence application [7] | % phytotoxicity AMARE, post-emergence application [8]
N#Cc1cccc(Oc2ncc(Br)cn2)c1SCCCC(F)(F)F [Compound A119] | 5 (5=81 to 100%) | 5 (5=81 to 100%) | 5 (5=81 to 100%) | 5 (5=81 to 100%) | 4 (4=61 to 80%) | 4 (4=61 to 80%) | 4 (4=61 to 80%) | 5 (5=81 to 100%)
FCCSc1ccccc1Oc1ncc(Cl)cn1 [Compound A60] | 2 (2=21 to 40%) | 3 (3=41 to 60%) | 1 (1=0 to 20%) | 4 (4=61 to 80%) | 1 (1=0 to 20%) | 1 (1=0 to 20%) | 2 (2=21 to 40%) | 3 (3=41 to 60%)
CC(C)=CCSc1ccccc1Oc1ncc(Cl)cn1 [Compound A52] | 2 (2=21 to 40%) | 1 (1=0 to 20%) | 1 (1=0 to 20%) | 1 (1=0 to 20%) | 4 (4=61 to 80%) | 3 (3=41 to 60%) | 1 (1=0 to 20%) | 3 (3=41 to 60%)
O=S(=O)(CCCF)c1ccccc1Oc1ncc(Cl)cn1 [Compound A82] | 3 (3=41 to 60%) | 3 (3=41 to 60%) | 1 (1=0 to 20%) | 5 (5=81 to 100%) | 1 (1=0 to 20%) | 1 (1=0 to 20%) | 3 (3=41 to 60%) | 3 (3=41 to 60%)
CCC(CC)CS(=O)(=O)c1ccccc1Oc1ncc(Cl)cn1 [Compound A87] | 1 (1=0 to 20%) | 1 (1=0 to 20%) | 1 (1=0 to 20%) | 1 (1=0 to 20%) | 1 (1=0 to 20%) | 1 (1=0 to 20%) | 1 (1=0 to 20%) | 1 (1=0 to 20%)
N#Cc1cccc(Oc2ncc(Cl)cn2)c1S(=O)(=O)CCOCC(F)(F)F [Compound A108] | 1 (1=0 to 20%) | 1 (1=0 to 20%) | 1 (1=0 to 20%) | 5 (5=81 to 100%) | 1 (1=0 to 20%) | 1 (1=0 to 20%) | 2 (2=21 to 40%) | 4 (4=61 to 80%)
N#Cc1cccc(Oc2ncc(Cl)cn2)c1[S+]([O-])CCCC(F)F (centres unmarked) [Compound A101] | 5 (5=81 to 100%) | 5 (5=81 to 100%) | 5 (5=81 to 100%) | 5 (5=81 to 100%) | 4 (4=61 to 80%) | 4 (4=61 to 80%) | 4 (4=61 to 80%) | 5 (5=81 to 100%)
FC(F)CCCSc1c(Cl)cccc1Oc1ncc(Cl)cn1 [Compound A105, 5-chloro-2-[3-chloro-2-(4,4-difluorobutylsulfanyl)phenoxy]pyrimidine] | 5 (5=81 to 100%) | 5 (5=81 to 100%) | 4 (4=61 to 80%) | 5 (5=81 to 100%) | 5 (5=81 to 100%) | 5 (5=81 to 100%) | 4 (4=61 to 80%) | 5 (5=81 to 100%)
O=S(=O)(CCCC(F)F)c1c(Cl)cccc1Oc1ncc(Cl)cn1 [Compound A103] | 2 (2=21 to 40%) | 2 (2=21 to 40%) | 4 (4=61 to 80%) | 4 (4=61 to 80%) | 1 (1=0 to 20%) | 1 (1=0 to 20%) | 2 (2=21 to 40%) | 4 (4=61 to 80%)
CC(C)CSc1ccccc1Oc1ncc(Cl)cn1 [Compound A72] | 4 (4=61 to 80%) | 4 (4=61 to 80%) | 1 (1=0 to 20%) | 4 (4=61 to 80%) | 3 (3=41 to 60%) | 2 (2=21 to 40%) | 2 (2=21 to 40%) | 3 (3=41 to 60%)
N#Cc1cccc(Oc2ncc(Cl)cn2)c1SCCCCC(F)(F)F [Compound A39] | 5 (5=81 to 100%) | 5 (5=81 to 100%) | 2 (2=21 to 40%) | 5 (5=81 to 100%) | 5 (5=81 to 100%) | 5 (5=81 to 100%) | 3 (3=41 to 60%) | 5 (5=81 to 100%)
C=C(C)CSc1ccccc1Oc1ncc(Cl)cn1 [Compound A62] | 3 (3=41 to 60%) | 3 (3=41 to 60%) | 1 (1=0 to 20%) | 1 (1=0 to 20%) | 4 (4=61 to 80%) | 3 (3=41 to 60%) | 1 (1=0 to 20%) | 1 (1=0 to 20%)
Cc1cnc(Oc2cccc(C#N)c2SCCCC(F)(F)F)nc1 [Compound A114] | 4 (4=61 to 80%) | 4 (4=61 to 80%) | 4 (4=61 to 80%) | 5 (5=81 to 100%) | 4 (4=61 to 80%) | 3 (3=41 to 60%) | 4 (4=61 to 80%) | 3 (3=41 to 60%)
N#Cc1cccc(Oc2ncc(Cl)cn2)c1SCCOC(F)(F)F [Compound A106] | 5 (5=81 to 100%) | 5 (5=81 to 100%) | 2 (2=21 to 40%) | 5 (5=81 to 100%) | 5 (5=81 to 100%) | 4 (4=61 to 80%) | 3 (3=41 to 60%) | 5 (5=81 to 100%)
FCCCSc1ccccc1Oc1ncc(Cl)cn1 [Compound A59] | 5 (5=81 to 100%) | 4 (4=61 to 80%) | 2 (2=21 to 40%) | 5 (5=81 to 100%) | 4 (4=61 to 80%) | 2 (2=21 to 40%) | 2 (2=21 to 40%) | 5 (5=81 to 100%)
O=S(=O)(Cc1cccc(Cl)c1)c1ccccc1Oc1ncc(Cl)cn1 [Compound A89] | 1 (1=0 to 20%) | 1 (1=0 to 20%) | 1 (1=0 to 20%) | 1 (1=0 to 20%) | 1 (1=0 to 20%) | 1 (1=0 to 20%) | 1 (1=0 to 20%) | 3 (3=41 to 60%)

Source: patent publication US20220324815A1, “2-PHENOXY-PYRIMIDINE DERIVATIVES AS HERBICIDAL COMPOUNDS” (SYNGENTA CROP PROTECTION AG, priority 2019, published 2022)
